Laboratory results: patent US20250145631A1, “HETEROCYCLIC COMPOUND ACTING ON G12D MUTANT KRAS PROTEIN” (Astellas Pharma Inc., priority 2022, published 2025)

Test system: phosphorylation of ERK (Thr202/Tyr204)
Experiment: ERK phosphorylation inhibitory effect by Cell ELISA in AsPC-1 cells (Test Example 2)
Type: cell-based
Settings: Homo sapiens, ASPC1, overnight treatment, Cell ELISA, read-out: IC50 (ERK phosphorylation inhibition)
How it was run: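 AsPC-1 cells (2.0×10^4/well, RPMI 1640 + 10% FBS) treated overnight with compounds (10 points, 10 μM to 0.3 nM final), then glyoxal-fixed and immunostained for phospho-ERK with IRDye 800CW secondary; 800-nm fluorescence read. IC50 by Sigmoid-Emax regression, normalized to DMSO (100%) and 1 μM trametinib (0%).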

Structure (SMILES)	IC50
CO[C@@H](C)COc1cc(O[C@H]2CCNC2)c2cc(C3CC3)c(-c3c(C)c(F)cc4[nH]ncc34)c(OCc3ccc(C(=O)N4CCN(Cc5ccc6c(c5)n(C)c(=O)n6C5CCC(=O)NC5=O)C[C@@H]4C)cc3)c2n1 (stereo partly drawn) [Example 12, 3-[5-({(3S)-4-[4-({[6-cyclopropyl-7-(6-fluoro-5-methyl-1H-indazol-4-yl)-2-[(2S)-2-methoxypropoxy]-4-{[(3S)-pyrrolidin-3-yl]oxy}quinolin-8-yl]oxy}methyl)benzoyl]-3-methylpiperazin-1-yl}methyl)-3-methyl-2-oxo-2,3-dihydro-1H-benzimidazol-1-yl]piperidine-2,6-dione]	16 nM
Cc1c(F)cc2[nH]ncc2c1-c1c(C2CC2)cc2c(N3C[C@@H]4C[C@H]3CN4)nc(OC3CCOCC3)nc2c1OCc1ccc(C(=O)N2CCN(Cc3ccc4c(c3)n(C)c(=O)n4C3CCC(=O)NC3=O)C[C@@H]2C)cc1 (stereo partly drawn) [Example 8, 3-(5-{[(3S)-4-{4-[({(7M)-6-cyclopropyl-4-[(1S,4S)-2,5-diazabicyclo[2.2.1]heptan-2-yl]-7-(6-fluoro-5-methyl-1H-indazol-4-yl)-2-[(oxan-4-yl)oxy]quinazolin-8-yl}oxy)methyl]benzoyl}-3-methylpiperazin-1-yl]methyl}-3-methyl-2-oxo-2,3-dihydro-TH-benzimidazol-1-yl)piperidine-2,6-dione]	21 nM
CO[C@@H](C)COc1cc(N2C[C@@H]3C[C@H]2CN3)c2cc(C3CC3)c(-c3c(C)c(F)cc4[nH]ncc34)c(OCc3ccc(C(=O)N4CCN(Cc5ccc6c(c5)n(C)c(=O)n6C5CCC(=O)NC5=O)C[C@@H]4C)cc3)c2n1 (stereo partly drawn) [Example 29, 3-(5-{[(3S)-4-{4-[({6-cyclopropyl-4-[(1S,4S)-2,5-diazabicyclo[2.2.1]heptan-2-yl]-7-(6-fluoro-5-methyl-1H-indazol-4-yl)-2-[(2S)-2-methoxypropoxy]quinolin-8-yl}oxy)methyl]benzoyl}-3-methylpiperazin-1-yl]methyl}-3-methyl-2-oxo-2,3-dihydro-1H-benzimidazol-1-yl)piperidine-2,6-dione]	24 nM
CO[C@@H](C)COc1nc(N2C[C@@H]3C[C@H]2CN3)c2cc(C3CC3)c(-c3c(C)c(F)cc4[nH]ncc34)c(OCc3ccc(C(=O)N4CCN(Cc5ccc6c(c5)n(C)c(=O)n6C5CCC(=O)NC5=O)C[C@@H]4C)cc3)c2n1 (stereo partly drawn) [Example 10, 3-(5-{[(3S)-4-{4-[({(7M)-6-cyclopropyl-4-[(1S,4S)-2,5-diazabicyclo[2.2.1]heptan-2-yl]-7-(6-fluoro-5-methyl-1H-indazol-4-yl)-2-[(2S)-2-methoxypropoxy]quinazolin-8-yl}oxy)methyl]benzoyl}-3-methylpiperazin-1-yl]methyl}-3-methyl-2-oxo-2,3-dihydro-1H-benzimidazol-1-yl)piperidine-2,6-dione]	9 nM
